Source: the CheMixHub drug solubility set

Assay: xn = mol fraction of the nth substance listed, in the solute-free solvent

CC(=O)OC(c1ccccc1)C(Cl)(Cl)Cl (centres undefined) + CCO + O
solubility (g/100 g solution)
Settings | 288.15 K | 293.15 K | 298.15 K | 303.15 K | 308.15 K | 313.15 K | 318.15 K | 323.15 K | 328.15 K
x2 = 0.4 | 0.237 | 0.492 | 0.787 | 1.3 | 1.94 | 2.85 | 3.79 | 4.63 | 5.65
x2 = 0.5 | 0.569 | 0.744 | 1.1 | 1.98 | 2.72 | 3.4 | 4.43 | 6.17 | 8.15
x2 = 0.6 | 1.11 | 1.43 | 1.77 | 3.24 | 4.3 | 5.43 | 7.34 | 9.98 | 13.9
x2 = 0.7 | 1.91 | 2.46 | 3 | 4.64 | 6.14 | 7.47 | 9.86 | 13.2 | 18
x2 = 0.8 | 2.52 | 3.05 | 4.06 | 6.07 | 7.63 | 9.55 | 12.1 | 16.4 | 21.2
x2 = 0.9 | 3.42 | 4.13 | 5.46 | 7.3 | 9.27 | 11.8 | 15.2 | 20 | 26.4

O=C(O)c1cc([N+](=O)[O-])ccc1O + CCCO + O
solubility (g/100 g solution)
Settings | 278.15 K | 283.15 K | 288.15 K | 293.15 K | 298.15 K | 303.15 K | 308.15 K | 313.15 K | 318.15 K | 323.15 K
x2 = 0.03225 | 0.0803 | 0.104 | 0.134 | 0.171 | 0.216 | 0.26 | 0.316 | 0.38 | 0.458 | 0.542
x2 = 0.06974 | 0.189 | 0.227 | 0.294 | 0.366 | 0.45 | 0.559 | 0.678 | 0.817 | 1.01 | 1.24
x2 = 0.1139 | 0.45 | 0.55 | 0.689 | 0.87 | 1.08 | 1.3 | 1.55 | 1.79 | 2.07 | 2.41
x2 = 0.1666 | 0.839 | 1.02 | 1.3 | 1.63 | 2.02 | 2.42 | 2.82 | 3.28 | 3.77 | 4.3
x2 = 0.2307 | 1.52 | 1.91 | 2.38 | 2.94 | 3.59 | 4.22 | 4.85 | 5.61 | 6.41 | 7.29
x2 = 0.3103 | 2.34 | 2.82 | 3.45 | 4.11 | 4.94 | 5.73 | 6.68 | 7.75 | 8.82 | 10.2
x2 = 0.4117 | 3.55 | 4.17 | 4.92 | 5.66 | 6.64 | 7.67 | 8.85 | 9.98 | 11.2 | 12.6
x2 = 0.5454 | 4.75 | 5.34 | 6.09 | 7.02 | 8.12 | 9.33 | 10.6 | 12 | 13.4 | 15.1
x2 = 0.7297 | 5.59 | 6.57 | 7.78 | 8.73 | 9.96 | 11.3 | 12.4 | 13.8 | 15.2 | 16.8
